The assay concerns hyaluronidase. The assay can be described thus: Hyaluronic acid zymography of explant tissue capsules. In kind it is biochemical, rats. Conditions: developing buffer containing 1 M neomycin; HA gels. Here is the method: Hyaluronic acid zymography studies were performed to study the inhibitory effect of neomycin on hyaluronidase. Tissue capsules from 3 weeks explanted treated aortic cusp samples were homogenized and used for gel zymography. Hyaluronic acid (HA) gels were made by incorporating 170 μg/ml of HA in 10% polyacrylamide gels. The tissue extracts were run at 90 Volts for 150 minutes. Protein molecular weight standards (10-150 kDa) were used to identify the molecular weights. Gels were incubated in the developing buffer (two for each sample type) and gels were also incubated in developing buffer containing 1 M neomycin. FIG. 8a and FIG. 8B show similar band intensities for active hyaluronidases in all groups. Thus, presence of more GAGs in Group 1 (Neomycin+EDC+GLUT) was not due to lower enzyme activity in this group as compared to other groups.

For `NCC1OC(OC2C(CO)OC(OC3C(O)C(N)CC(N)C3OC3OC(CN)C(O)C(O)C3N)C2O)C(N)C(O)C1O` (stereo not shown) [neomycin trisulfate], the “effect on hyaluronidase activity (zymography band density)” value is recorded as “inhibited enzyme activity”.

The record behind these values is patent US8142805B1, “Implantable devices including fixed tissues” (Clemson University Research Foundation, priority 2006, dated 2012).
